Measured values from patent US20230157996A1, “SMALL-MOLECULE INHIBITOR TARGETING EB VIRUS NUCLEAR ANTIGEN PROTEIN, PREPARATION METHOD AND USE THEREOF” (priority 2020, published 2023).
Like-named read-outs stand apart in the source and are kept apart here.

Tests used:
[1] = system: C666-1 cells; assay: C666-1 cell viability single concentration (50 μM) inhibition rate (Resazurin); format: cell-based; details: Homo sapiens, C6661, 72 h, C666-1 cells
Procedure, shortened: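 Resazurin fluorescence (560/590 nm, 3 h development) gave the proliferation inhibition rate, normalised to DMSO-treated and cell-free blank wells. Compound was tested at a single 50 μmol/L final concentration on C666-1 cells for 72 h at 37° C, with duplicate wells, after 24 h seeding.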

[2] = system: C666-1 cells; assay: C666-1 cell viability, EC50 from 8-point dilution (Resazurin); format: cell-based; details: 100-0.78 μmol/L, read-out: EC50 Quantitation
Method: In order to assess the effect of the EBNA1 inhibitor at the cellular level, the cytotoxicity assay was performed. The EBNA1 inhibitor selectively killed EBV-positive cell lines ([…]-1 cells), but had no toxicity to EBV-negative cell lines (HONE1 cells and HK1 cells). In the test, 100 μL different cell lines were inoculated in a transparent 96-well plate, each well containing 5×10^3 […]-1 cells. After the cells were cultured in an incubator with 5% carbon dioxide at 37° C. for 24 hours, 10 μL compound at a concentration range from 1 mmol/L to 7.8 μmol/L was added into each well (8 points, 2-fold dilution, the final concentration was 100-0.78 μmol/L), and treated in the incubator with carbon dioxide at 37° C. for 72 hours. The cell viability was assessed using a redox indicator Resazurin. Specifically, 10 μL Resazurin at a concentration of 600 μmol/L was added into each well, and incubated at 37° C. for 3 hours, and a Tecan microplate reader was used to detect the fluorescence signal at an excitation wavelength of 560 nm and an emission wavelength of 590 nm. A software was used to fit the inhibition curve and calculate the concentration for 50% of maximal effect (EC50). The selectivity of compound activity was assessed by comparing the EC50 of EBV-positive and EBV-negative cell lines.

[3] = 50 μM compound, 72 hours, read-out: C666-1 cell viability single concentration (50 μM) inhibition rate, Ratio* (Inh %)
[4] = single concentration, read-out: Inhibition Rate (Inh %)

Compound	inhibition at 50 µM [1, 3]	inhibition at 50 µM [1, 4]	EC50 ([2]; Homo sapiens, C6661, 72 h)	EC50 ([2]; 72 hours)
COC(=O)c1cccc(N2CC(OC(=O)Nc3ccc(OC)cc3OC)C2)c1-n1cccc1 [Example 146, Methyl 3-(3-(((2,4-dimethoxyphenyl)carbamoyl)oxy)azetidin-1-yl)-2-(1H-pyrrol-1-yl)benzoate]	10 to 30%	10 to 30%	> 100 µM	–
COC(=O)c1cccc(N2CC(OC(=S)Nc3ccc(Cl)cc3)C2)c1-n1cccc1 [Example 147, Methyl 3-(3-(((4-chlorophenyl)thiocarbamoyl)oxy)azetidin-1-yl)-2-(1H-pyrrol-1-yl)benzoate]	30 to 50%	30 to 50%	50 to 75 µM	–
COC(=O)c1cccc(N2CC(OC(=O)Nc3ccc(Oc4ccccc4)cc3)C2)c1-n1cccc1 [Example 152, Methyl 3-(3-(((4-phenoxyphenyl)carbamoyl)oxy)azetidin-1-yl)-2-(1H-pyrrol-1-yl)benzoate]	< 10%	< 10%	> 100 µM	–
COC(=O)c1cccc(N2CC(OC(=O)Nc3ccc(OC(F)(F)F)cc3)C2)c1-n1cccc1 [Example 153, Methyl 2-(1H-pyrrol-1-yl)-3-(3-(((4-(trifluoromethoxy)phenyl)carbamoyl)oxy)azetidin-1-yl)benzoate]	10 to 30%	10 to 30%	75 to 100 µM	–
COC(=O)c1cccc(N2CC(OC(=O)NCc3ccc(C(F)(F)F)cc3)C2)c1-n1cccc1 [Example 154, Methyl 2-(1H-pyrrol-1-yl)-3-(3-(((4-(trifluoromethyl)benzyl)carbamoyl)oxy)azetidin-1-yl)benzoate]	10 to 30%	10 to 30%	> 100 µM	–
COC(=O)c1cccc(N2CC(=CC(=O)OC(C)(C)C)C2)c1-n1cccc1 [Example 189, Methyl 3-(3-(2-(tert-butoxy)-2-oxovinyl)azetidin-1-yl)-2-(1H-pyrrol-1-yl)benzoate]	10 to 30%	10 to 30%	75 to 100 µM	–
COc1cccc(Oc2ccc(OC3CN(c4cccc(C(=O)O)c4-n4cccc4)C3)cc2)c1 [Example 197, 3-(3-(4-(3-methoxyphenoxy)phenoxy)azetidin-1-yl)-2-(1H-pyrrol-1-yl) benzoic acid]	10 to 30%	10 to 30%	> 100 µM	–
COC(=O)c1cccc(N2CC(Oc3ccc(COC(=O)OC4CCOCC4)cc3)C2)c1-n1cccc1 [Example 234, Methyl 3-(3-(4-(((((tetrahydro-2H-pyran-4-yl)oxy)carbonyl)oxy)methyl)phenoxy)azetidin-1-yl)-2-(1H-pyrrol-1-yl)benzoate]	> 50%	> 50%	< 50 µM	–
COC(=O)c1cccc(N2CC(Oc3ccc(C(=O)Nc4ccccc4)cc3)C2)c1-n1cccc1 [Example 263, Methyl 3-(3-(4-(phenylcarbamoyl)phenoxy)azetidin-1-yl)-2-(1H-pyrrol-1-yl)benzoate]	10 to 30%	10 to 30%	> 100 µM	–
CCNC(=O)c1ccc(OC2CN(c3cccc(C(=O)O)c3-n3cccc3)C2)cc1 [Example 264, 3-(3-(4-(ethylcarbamoyl)phenoxy)azetidin-1-yl)-2-(1H-pyrrol-1-yl)benzoic acid]	< 10%	< 10%	> 100 µM	–
O=C(O)c1cccc(N2CC(Oc3ccc(C(=O)N4CCOCC4)cc3)C2)c1-n1cccc1 [Example 266, 3-(3-(4-(morpholinyl-4-carbonyl)phenoxy)azetidin-1-yl)-2-(1H-pyrrol-1-yl)benzoic acid]	< 10%	< 10%	> 100 µM	–
O=C(O)c1cccc(N2CC(Oc3ccc(Oc4ccc(C(F)(F)F)cc4)cc3)C2)c1-n1cccc1 [Example 292, 3-(3-(4-(4-(trifluoromethyl)phenoxy)phenoxy)azetidin-1-yl)2-(1H-pyrrol-1-yl)benzoic acid]	> 50%	> 50%	< 50 µM	–
O=C(Nc1ccccc1)c1ccc(OC2CN(c3cccc(C(=O)O)c3-n3cccc3)C2)cc1 [Example 302, 3-(3-(4-(phenylcarbamoyl)phenoxy)azetidin-1-yl)-2-(1H-pyrrol-1-yl)benzoic acid]	10 to 30%	10 to 30%	> 100 µM	–
COC(=O)c1cccc(C#CN(Cc2ccccc2)S(C)(=O)=O)c1-n1cccc1 [Example 381, Methyl 3-((N-benzylmethylsulfonamido)ethynyl)-2-(1H-pyrrol-1-yl)benzoate]	30 to 50%	30 to 50%	> 100 µM	–
COC(=O)c1cccc(C#CN(C)S(=O)(=O)c2ccc(C)cc2)c1-n1cccc1 [Example 383]	10 to 30%	–	< 50 µM	> 100 µM
CN(C)CCNC(=O)c1cccc(N2CC(Oc3ccc(CO)cc3)C2)c1-n1cccc1 [Example 396, N-(2-dimethylamino)ethyl-3-(3-(4-(hydroxymethyl)phenoxy)azetidin-1-yl)-2-(1H-pyrrol-1-yl)benzamide]	< 10%	–	–	–
